Source: patent US20180256489A1, “NATURAL FORMULATIONS” (priority 2010, published 2018)

Legend:
[1] = Foaming by shaking in a covered glass cylinder; format: physicochemical; conditions: Table 5; 1 wt % calculated saponins in distilled water
Experimental: (§1) Foaming properties of a solution of 1 wt % of the extract of the invention in water were measured by shaking 10 ml of the solution five times in a 100 ml covered glass cylinder. The volume of the generated foam was measured. Another method for measuring the foaming was performed by Moulinex LM240 blender at a maximum speed of 10 seconds for 80 ml solution. The generated foam was transferred to glass cylinder and measured. The same procedure was repeated with extracts obtained by various ethanol/water mixtures. Foaming—solution of 1 wt % of the extract in water was shaken five times in a glass cylinder as described above. The volume of the generated foam was measured. Another method for measuring the foaming was performed by Moulinex LM240 blender at a maximum speed of 10 seconds for 80 ml solution and measured in a glass cylinder, and the foaming results are detailed in Table 4 below.

[2] = Foaming by Moulinex LM240 blender; format: physicochemical; conditions: Table 5; 1 wt % calculated saponins in distilled water
Experimental: as §1

[3] = system: erythrocytes of sheep blood; test: Haemolysis test (model for eye irritation); format: cell-based; conditions: 50% haemolysis, 30 minutes in ice, 540 nm
Experimental: Haemolysis test (which serves as a model for eye irritation) was conducted in order to determine the safety of the products of the invention in comparison to the commercial surfactant SLES (sodium lauryl ether sulfate).
Preparation of the erythrocyte suspension: erythrocytes of sheep blood were separated by centrifugation at 1250g, for 15 minutes at room temperature, washed three times with phosphate-buffered saline solution (PBS, pH 7.4), and centrifuged twice under the same condition. The blood volume was completed with PBS. This suspension was maintained at 4° C. for up to three days.
The assay procedure: 20 μl of each sample were diluted up to 2 ml of the suspension, and were incubated with for 30 minutes in ice. The incubation was terminated by a rapid, high-speed (1800 g) centrifugation for 30 minutes. The extent of haemolysis was determined in spectrophotometrically at 540 nm against a blank (PBS). The extent of haemolysis, expressed as a percentage, was calculated as the absorbance of an erythrocyte suspension incubated with each product, relative to that of a completely haemolysed control (100%, at distilled water) at 540 nm. The Hm50 (50% haemolysis) was determined from concentration—response curves.

Substance | Foam volume by shaking [1] | Foam volume by blender [2] | HM50 [3] [gram/100 ml]
decyl glycoside [1 wt % Decyl glycoside] | 57 (±5) ml | 420 (±15) ml | –
sodium lauryl ether sulfate [SLES] | – | – | 0.001
